Like-named read-outs stand apart in the source and are kept apart here.
Tests used:
H526 tumors = experiment: In vivo xenograft, human lung (SCLC) H526; conditions: iv weekly, 32 and ET-736 0.5 mg/Kg
Method: (§2) Female athymic nu/nu mice (Harlan Laboratories Models, S. L. Barcelona, Spain or Envigo, Spain) were utilized for all experiments. Animal were housed in individually ventilated cages Sealsafe® Plus, Techniplast S.P.A.), up to ten per cage on a 12-hour light-dark cycle at 21-23° C. and 40-60% humidity. Mice were allowed free access to irradiated standard rodent diet (Tecklad 2914C) and sterilized water. Animals were acclimated for at least 5 days prior to tumor implantation with a tumor cell suspension.
H526 cells were grown as a suspension and maintained by addition of fresh medium, as the cell density increases, every 2 to 3 days. Every week, culture was reestablished by centrifugation of the suspension with subsequent resuspension in fresh medium at a concentration of 1×10^5 cell/mL. Each animal was subcutaneously implanted (on the right flank using 26 G needle and a 1 cc syringe) at 4-6 weeks of age with 5×10^6 H526 cells suspended in 0.05 mL of a solution consisting of 50% Matrigel® (Corning Incorporated Life Sciences) and 50% medium without serum or antibiotics.
(§3) Treatment tolerability was assessed by monitoring body weight evolution, clinical signs of systemic toxicity, as well as evidences of local damage in the injection site.
(§4) Treatments producing >20% lethality and/or 20% net body weight loss were considered toxic.

H82 tumors = experiment: In vivo xenograft, human lung (SCLC) H82; conditions: iv weekly, 32 and ET-736 0.5 mg/Kg
Method: as §2
H82 cells were grown as a suspension and maintained by addition of fresh medium, as the cell density increases, every 2 to 3 days. Every week, culture was reestablished by centrifugation of the suspension with subsequent resuspension in fresh medium at a concentration of 1×10^5 cell/ml. Animals were subcutaneously implanted (on the right flank using 26 G needle and a 1 cc syringe) at 4-6 weeks of age with 5×10^6 H82 cells, suspended in 0.05 mL of a solution consisting of 50% Matrigel® (Corning Incorporated Life Sciences) and 50% medium without serum or antibiotics.
as §3
In xenograft studies with other cell lines: • Tumor volume was calculated using the equation (a·b^2)/2, where a: length (longest diameter) and b: width (shortest diameter) were measured in mm by using digital caliper (Fowler Sylvac, S235PAT).
as §4
Tables and figures summarize the data obtained from complete experimental groups, i.e. those groups keeping the initial number of animals, n=8-10.

[1] = MTMD (Maximum Tolerated Multiple Dose) determination, iv weekly x3; type: in vivo; conditions: mice; iv/Q7dx3
Source text: Female CD-1 or Athymic Nude-Fox1 nu/nu mice (Envigo) were utilized for all experiments. […] Animals were acclimated for five days prior to being individually tattoo-identified. Animal protocols were reviewed and approved according to the regional Institutional Animal Care and Use Committees.
Mice were randomly allocated into experimental groups and intravenously administered, once for the MTD (Maximum Tolerated Dose) determination or one administration a week during three consecutive weeks, for the MTMD (Maximum Tolerated Multiple Dose) determination study. The animals were administered with white formulation or with compound dissolved in the experimental formulation at different concentrations. The volume administered was always 10 mL/kg. Once administered, animals were monitored for clinical signs of systemic toxicity, changes in body weight and mortality up to 14 days after the administration.

HT29 cells = experiment: cells; conditions: Homo sapiens, HT-29, 72 h; for CC50: read-out: LC50; for IC (TGI): read-out: TGI
How it was run: (§1)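 SRB read-out after 72 h exposure; fixed untreated plate served as time-zero reference. Compounds ranged 10 to 0.003 μg/mL over ten 2/5 dilutions, triplicate wells, 1% final DMSO, DMEM with 10% FBS. Values via NCI algorithm, four-parameter logistic regression.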

A549 cells = experiment: cells; conditions: Homo sapiens, A549, 72 h; for CC50: read-out: LC50; for IC (TGI): read-out: TGI
How it was run: as §1

MDA-MB-231 cells = experiment: cells; conditions: Homo sapiens, MDA-MB-231, 72 h; for CC50: read-out: LC50; for IC (TGI): read-out: TGI
How it was run: as §1

PSN1 cells = experiment: cells; conditions: Homo sapiens, PSN1, 72 h; for CC50: read-out: LC50; for IC (TGI): read-out: TGI
How it was run: as §1

H460 tumors = conditions: iv, 0.5 mg/kg
Method: Female athymic nu/nu mice (Harlan Laboratories Models, S. L. Barcelona, Spain or Envigo, Spain) were utilized for all experiments. Animal were housed in individually ventilated cages Sealsafe® Plus, Techniplast S.P.A.), up to ten per cage on a 12-hour light-dark cycle at 21-23° C. and 40-60% humidity. […] Animals were acclimated for at least 5 days prior to tumor implantation with a tumor cell suspension.
H460 cells were maintained in vitro at 37° C. with 5% CO2 in Dulbecco's Modified Eagle's Medium (Sigma-Aldrich, Co). Culture cells were passaged every 3 to 5 days upon reaching confluence. Each animal was subcutaneously implanted (on the right flank using 26 G needle and a 1 cc syringe) at 4-6 weeks of age with 5×10^6 H460 cells suspended in 0.05 mL of a solution consisting of 50% Matrigel® (Corning Incorporated Life Sciences) and 50% medium without serum or antibiotics.
as §3, §4

With `COc1c(C)cc2c(c1O)[C@@H]1[C@@H]3[C@@H]4SC[C@]5(NCCc6c5[nH]c5ccccc65)C(=O)OC[C@@H](c5c6c(c(C)c(OC(C)=O)c54)OCO6)N3[C@@H](O)[C@H](C2)N1C` [ET-736, Ecteinascidin 736] the “Median Tumor Volume” value (H526 tumors; Table 63, Day 0) was 213.5 mm^3, the “Median Tumor Volume” value (H526 tumors; Table 63, Day 2) was 240.5 mm^3 and the “Median Tumor Volume” value (H526 tumors; Table 63, Day 4) was 97.2 mm^3. The “Median Tumor Volume” value (H526 tumors; Table 63, Day 7) was 48.8 mm^3, the “Median Tumor Volume” value (H526 tumors; Table 63, Day 9) was 62.5 mm^3 and the “Median Tumor Volume” value (H526 tumors; Table 63, Day 11) was 62.5 mm^3. For the same compound, the “Median Tumor Volume” value (H526 tumors; Table 63, Day 14) was 47.3 mm^3, the “Median Tumor Volume” value (H526 tumors; Table 63, Day 16) was 32.0 mm^3 and the “Median Tumor Volume” value (H526 tumors; Table 63, Day 21) was 4.0 mm^3. The “Median Tumor Volume” value (H526 tumors; Table 63, Day 28) was 4.0 mm^3, the “Median Tumor Volume” value (H526 tumors; Table 63, Day 35) was 4.0 mm^3 and the “Median Tumor Volume” value (H526 tumors; Table 63, Day 42) was 4.0 mm^3. The “Median Tumor Volume” value (H526 tumors; Table 63, Day 49) was 4.0 mm^3, the “Median Tumor Volume” value (H526 tumors; Table 63, Day 56) was 4.0 mm^3 and the “Median Tumor Volume” value (H526 tumors; Table 63, Day 63) was 4.0 mm^3. For the same compound, the “Median Tumor Volume” value (H526 tumors; Table 63, Day 70) was 4.0 mm^3, the “Median Tumor Volume” value (H526 tumors; Table 63, Day 77) was 4.0 mm^3 and the “Median Tumor Volume” value (H526 tumors; Table 63, Day 84) was 199.8 mm^3. For the same compound, the “Median Tumor Volume” value (H526 tumors; Table 63, Day 91) was 786.5 mm^3, the “Median Tumor Volume” value (H82 tumors; Table 64, Day 0) was 170.0 mm^3 and the “Median Tumor Volume” value (H82 tumors; Table 64, Day 2) was 334.4 mm^3. The “Median Tumor Volume” value (H82 tumors; Table 64, Day 5) was 539.4 mm^3, the “Median Tumor Volume” value (H82 tumors; Table 64, Day 7) was 836.4 mm^3 and the “Median Tumor Volume” value (H82 tumors; Table 64, Day 9) was 1013.1 mm^3. The “Median Tumor Volume” value (H82 tumors; Table 64, Day 12) was 1290.9 mm^3, the “Median Tumor Volume” value (H82 tumors; Table 64, Day 14) was 1648.0 mm^3 and the MTMD [1] was 0.5 mg/kg. The GI50 (HT29 cells) was 21.2 nM, the CC50 (HT29 cells) was > 132 nM and the IC (TGI) (HT29 cells) was 22.5 nM. For the same compound, the GI50 (A549 cells) was 22.5 nM, the CC50 (A549 cells) was > 132 nM and the IC (TGI) (A549 cells) was 47.7 nM. It also gave a GI50 (MDA-MB-231 cells) of 21.2 nM, a CC50 (MDA-MB-231 cells) of 47.7 nM and an IC (TGI) (MDA-MB-231 cells) of 25.2 nM. It also gave a GI50 (PSN1 cells) of 39.7 nM, a CC50 (PSN1 cells) of 102 nM and an IC (TGI) (PSN1 cells) of 59.6 nM. For the same compound, the “Median Tumor Volume” value (H460 tumors; 0 h) was 185.8 mm^3, the “Median Tumor Volume” value (H460 tumors; 48 h) was 457.8 mm^3 and the “Median Tumor Volume” value (H460 tumors; 120 h) was 732.8 mm^3. For the same compound, the “Median Tumor Volume” value (H460 tumors; 168 h) was 930.1 mm^3, the “Median Tumor Volume” value (H460 tumors; 336 h) was 1845.5 mm^3 and the “Median Tumor Volume” value (H460 tumors; 384 h) was 2025.0 mm^3.

For `COc1c(C)cc2c(c1O)[C@@H]1[C@@H]3[C@@H]4SC[C@]5(NCCc6c5oc5ccccc65)C(=O)OC[C@@H](c5c6c(c(C)c(OC(C)=O)c54)OCO6)N3[C@@H](O)[C@H](C2)N1C` [Compound 32], the “Median Tumor Volume” value (H526 tumors; Table 63, Day 0) was 212.1 mm^3, the “Median Tumor Volume” value (H526 tumors; Table 63, Day 2) was 277.3 mm^3 and the “Median Tumor Volume” value (H526 tumors; Table 63, Day 4) was 127.0 mm^3. For the same compound, the “Median Tumor Volume” value (H526 tumors; Table 63, Day 7) was 95.0 mm^3, the “Median Tumor Volume” value (H526 tumors; Table 63, Day 9) was 63.1 mm^3 and the “Median Tumor Volume” value (H526 tumors; Table 63, Day 11) was 62.5 mm^3. For the same compound, the “Median Tumor Volume” value (H526 tumors; Table 63, Day 14) was 62.5 mm^3, the “Median Tumor Volume” value (H526 tumors; Table 63, Day 16) was 62.5 mm^3 and the “Median Tumor Volume” value (H526 tumors; Table 63, Day 21) was 4.0 mm^3. The “Median Tumor Volume” value (H526 tumors; Table 63, Day 28) was 4.0 mm^3, the “Median Tumor Volume” value (H526 tumors; Table 63, Day 35) was 55.3 mm^3 and the “Median Tumor Volume” value (H526 tumors; Table 63, Day 42) was 85.3 mm^3. The “Median Tumor Volume” value (H526 tumors; Table 63, Day 49) was 185.6 mm^3, the “Median Tumor Volume” value (H526 tumors; Table 63, Day 56) was 169.1 mm^3 and the “Median Tumor Volume” value (H526 tumors; Table 63, Day 63) was 62.5 mm^3. For the same compound, the “Median Tumor Volume” value (H526 tumors; Table 63, Day 70) was 88.9 mm^3, the “Median Tumor Volume” value (H526 tumors; Table 63, Day 77) was 280.6 mm^3 and the “Median Tumor Volume” value (H526 tumors; Table 63, Day 84) was 694.2 mm^3. For the same compound, the “Median Tumor Volume” value (H526 tumors; Table 63, Day 91) was 1150.9 mm^3, the “Median Tumor Volume” value (H82 tumors; Table 64, Day 0) was 171.6 mm^3 and the “Median Tumor Volume” value (H82 tumors; Table 64, Day 2) was 309.4 mm^3. The “Median Tumor Volume” value (H82 tumors; Table 64, Day 5) was 485.0 mm^3, the “Median Tumor Volume” value (H82 tumors; Table 64, Day 7) was 708.4 mm^3 and the “Median Tumor Volume” value (H82 tumors; Table 64, Day 9) was 972.6 mm^3. The “Median Tumor Volume” value (H82 tumors; Table 64, Day 12) was 1101.6 mm^3, the “Median Tumor Volume” value (H82 tumors; Table 64, Day 14) was 1339.6 mm^3 and the “Median Tumor Volume” value (H82 tumors; Table 64, Day 16) was 1430.3 mm^3. For the same compound, the “Median Tumor Volume” value (H82 tumors; Table 64, Day 19) was 1885.7 mm^3, the MTMD [1] was 0.5 mg/kg and the GI50 (HT29 cells) was 6.88 nM. The CC50 (HT29 cells) was > 13.2 nM, the IC (TGI) (HT29 cells) was > 13.2 nM and the GI50 (A549 cells) was 6.88 nM. The CC50 (A549 cells) was > 13.2 nM, the IC (TGI) (A549 cells) was > 13.2 nM and the GI50 (MDA-MB-231 cells) was 4.76 nM. The CC50 (MDA-MB-231 cells) was > 13.2 nM, the IC (TGI) (MDA-MB-231 cells) was 10.5 nM and the GI50 (PSN1 cells) was 6.09 nM. The CC50 (PSN1 cells) was 12 nM, the IC (TGI) (PSN1 cells) was 8.34 nM and the “Median Tumor Volume” value (H460 tumors; 0 h) was 183.9 mm^3. For the same compound, the “Median Tumor Volume” value (H460 tumors; 48 h) was 455.2 mm^3, the “Median Tumor Volume” value (H460 tumors; 120 h) was 784.8 mm^3 and the “Median Tumor Volume” value (H460 tumors; 168 h) was 837.4 mm^3. For the same compound, the “Median Tumor Volume” value (H460 tumors; 336 h) was 1845.5 mm^3 and the “Median Tumor Volume” value (H460 tumors; 384 h) was 2025.0 mm^3.

Source: US10538535B2, “Antitumoral compounds” (priority 2017, dated 2020)
